Source: the NIST ThermoML archive (doi:10.1021/je025625m)

Experiment: excess molar enthalpy (molar enthalpy of mixing); xn = mol fraction of the nth substance listed
Conditions: 298.15 K, 101 kPa, Liquid

CCCCCCCl [1-chlorohexane] + c1ccccc1
Conditions	excess molar enthalpy [kcal/mol]
x2 = 0.0723	0.00146
x2 = 0.0744	0.0017
x2 = 0.0805	0.00146
x2 = 0.0888	0.00167
x2 = 0.1407	0.00311
x2 = 0.1427	0.00351
x2 = 0.1437	0.00351
x2 = 0.2125	0.00538
x2 = 0.2862	0.00791
x2 = 0.3323	0.00992
x2 = 0.394	0.0127
x2 = 0.4431	0.0156
x2 = 0.5015	0.0189
x2 = 0.5375	0.0208
x2 = 0.541	0.0208
x2 = 0.5524	0.0218
x2 = 0.582	0.0229
x2 = 0.6153	0.0245
x2 = 0.6575	0.0256
x2 = 0.7164	0.0265
x2 = 0.7288	0.0266
x2 = 0.7352	0.0262
x2 = 0.7928	0.025
x2 = 0.8215	0.0242
x2 = 0.8484	0.0224
x2 = 0.8629	0.0207
x2 = 0.894	0.0174
x2 = 0.9274	0.0132
x2 = 0.9535	0.00918
